Molecules are shown by their SMILES.

The target in this assay is Angiotensin-converting enzyme (Cavia porcellus). The assay is described as follows: Inhibition of guinea pig angiotensin I converting enzyme.
Consider `CC(=O)SCCC(=O)N1Cc2ccccc2C1C(=O)O` (centres undefined), for which the IC50 (usually the concentration at which inhibition is half-maximal) was found to be 22000 nM. In the case of `CCOC(=O)C(CCc1ccccc1)NC(C)C(=O)N1Cc2cc(OC)c(OC)cc2CC1C(=O)OCc1ccccc1` (centres undefined), it took 300 nM to reach half-maximal inhibition (IC50).

For `CCOC(=O)C(CCc1ccccc1)N(C)C(C)C(=O)N1Cc2ccccc2CC1C(=O)O` (centres undefined), the IC50 was more than 10000 nM.

In the case of `CCOC(=O)C(CCc1ccccc1)NC(C)C(=O)N1Cc2cc(OC)c(OC)cc2CC1C(=O)OCC` (centres undefined), the IC50 was determined as 520 nM. The same measure for `CC(NC(CCc1ccccc1)C(=O)O)C(=O)N1Cc2ccccc2C1C(=O)O` (centres undefined): 3.1 nM; for `CCOC(=O)[C@H](CCc1ccccc1)N[C@@H](C)C(=O)N1Cc2ccccc2[C@H]1C(=O)O`: 44 nM; for `CCOC(=O)C(CCc1ccccc1)NC(C)C(=O)N1Cc2ccccc2CC1C(=O)OCC` (centres undefined): 440 nM. In the case of `CC(=O)SCC(C)C(=O)N1CCc2ccccc2C1` (centres undefined) it was 49000 nM. In the case of `CCOC(=O)[C@H](CCc1ccccc1)N[C@@H](C)C(=O)N1Cc2ccccc2[C@@H]1C(=O)O` it was more than 1000 nM. Consider `CC(CS)C(=O)N1CCc2ccccc2C1` (centres undefined), for which the IC50 was found to be 48000 nM. Regarding `CC(NC(CCc1ccccc1)C(=O)O)C(=O)N1CCc2ccccc2C1C(=O)O` (centres undefined), the IC50 was 5.8 nM. Consider `CC(=O)SCC(C)C(=O)N1Cc2ccccc2CC1C(=O)O` (racemic), for which inhibition was half-maximal at 130 nM (IC50). In the case of `CC(=O)SCC(C)C(=O)N1Cc2ccccc2C1C(=O)O` (mixture of isomers) it was 24000 nM. In the case of `O=C(O)C1c2ccccc2CN1C(=O)CCS` (centres undefined), the IC50 is 58000 nM.
